The text below walks through data of patent publication EP2161259A1, “4-Haloalkyl substituted Diaminopyrimidine” (Bayer CropScience AG, priority 2008, dated 2010).

The subject of data set [1] is Fumonisin FB1. Nature of the data set: Production of fumonisin FB1 by Fusarium proliferatum (microtiter plate, HPLC-MS/MS). The following applies: 144 h, read-out: pI50 FB1. It is filed as cell-based.
In data set [2] the test system is Fusarium proliferatum. Nature of the data set: microbe, parasite or virus in culture. It is filed as cell-based. Particulars: 144 h, read-out: pI50 Wachstum.
Data set [3] concerns Gibberella zeae. The following applies: in vivo.
For data set [4], the system named is Botrytis cinerea. It is filed as in vivo. The following applies: 48 h, 250 ppm. The text has this:
Lösungsmittel: 24,5 Gewichtsteile Aceton 24,5 Gewichtsteile Dimethylacetamid Emulgator : 1 Gewichtsteil Alkyl-Aryl-Polyglykolether Zur […] und Emulgator und verdünnt das Konzentrat mit Wasser auf die gewünschte Konzentration. Zur Prüfung auf protektive Wirksamkeit werden junge Pflanzen mit der Wirkstoffzubereitung in der angegebenen Aufwandmenge besprüht. Nach Antrocknen des Spritzbelages werden auf jedes Blatt 2 […] Botrytis cinerea […]. Die inokulierten Pflanzen werden in einer abgedunkelten Kammer bei ca. 20°C und 100% relativer Luftfeuchtigkeit aufgestellt. 2 Tage nach der Inokulation wird die Größe der Befallsflecken auf den Blä[…]. Dabei bedeutet 0% ein Wirkungsgrad, der demjenigen der Kontrolle entspricht, während ein Wirkungsgrad von 100% bedeutet, daß kein Befall beobachtet wird.

The test system of data set [5] is Alternaria solani. Nature of the data set: Alternaria test (tomato) / protective. It is filed as in vivo. The following applies: 168 h, 500 ppm.
Data set [6] relates to Puccinia recondita. Nature of the data set: Puccinia test (wheat) / protective. It is filed as in vivo. The following applies: 500 ppm.
Data set [7] has as its system Pyricularia oryzae. It is filed as in vivo. The following applies: 250ppm active compound; rice, protective; evaluation 7 days after inoculation.
For data set [8], the system named is Cochliobolus miyabeanus. The data set is described as follows: Cochliobolus test (rice) / protective. It is filed as in vivo. Particulars: 250ppm active compound, evaluation 4 days after inoculation.
Data set [9] can be described thus: physchem. Particulars: pH 2.7.

A value given as a limit tells only on which side of the number the result lay.

With `CNC(=O)Oc1cccc(Nc2ncc(Cl)c(NCC(F)(F)F)n2)c1` [Verbindung 34], the IC50 in [1] is 10 µM; in [2], over 50.1 µM. In addition, in data set [3], the Wirkungsgrad is recorded as at least 80%.
`N#CCc1cccc(Nc2ncc(Cl)c(NCC(F)F)n2)c1` [Verbindung 43]: the Wirkungsgrad is reported as at least 70% in data set [4]; at least 70% in data set [5]; at least 70% in [6]; at least 80% in data set [7]; at least 80% in data set [8]. For the same compound, the results for the IC50 in [1] and in data set [2] were 1.26 µM and 6.31 µM, respectively. Also, in [9], the chromatographic logP is 1.89.

In general, chromatographic logP refers to lipophilicity estimated from chromatographic retention. A low value points to a more hydrophilic compound.
